Assay results taken from patent US11760773B2, “Small molecule drug conjugates of gemcitabine monophosphate” (MaveriX Oncology, Inc., priority 2018, dated 2023).
Read-outs that look alike come from different tables or passages of the source.

What was measured:
[1] = Metabolic stability in liver hepatocytes, dog; format: in vitro ADME
[2] = Liver microsomal stability, human; format: in vitro ADME
[3] = Comparative plasma PK of Compound 1 versus Int 1-4 in male CD-1 mice (study b); format: in vivo; details: male, CD-1, mouse, iv
Experimental: Objectives: to compare the plasma pharmacokinetics and stability of Compound 1 with its non-phosphorylated SMDC analog (Int 1-4) and in plasma following a single intravenous infusion administration of Compound 1 at 11.6 mg/kg and 23.2 mg/kg with Int 1-4 (formulation F1 & F2) at 10.0 mg/kg in male CD-1 mice
PK measurements: compare PK parameters C0, CL, Vdss, Cmax, tmax, t1/2, AUC(0-t), AUC(0-inf), MRT(0-t), MRT(0-inf) for Compound 1 and Int 1-4

UT-SCC-8 = assay: Tumor cell proliferation (alamarBlue) cytotoxicity assay, UT-SCC-8; format: cell-based, human; details: Homo sapiens; UT-SCC-8, 72 hours treatment
Experimental: (§1) A tumor cell proliferation assay was used to determine cytotoxicity IC50 values for the phosphate prodrug Compounds 1-9, the parent non-phosphorylated SMDC parent compounds, and the effector (gemcitabine) across eight primary early-passage human head and neck squamous cell carcinoma cell lines including UT-SCC-5, UT-SCC-8, UT-SCC-9, UT-SCC-10, UT-SCC-14, UT-SCC-16A, UT-SCC-16B, and UT-SCC-24A.
(§2) UTSCC cells were seeded at 4000 cells/100 I/well on 96-well black clear-bottom tissue culture plate. Cells were incubated at 37° C. and 5% CO2 overnight to allow them to recover and re-attach. The next day cells were treated with the test compound (0-100 μM) for 72 hours. After treatment, cell proliferation was measured by Fluorescent quantitation of alamarBlue reagent. The alamarBlue assay incorporates a fluorometric/colorimetric growth indicator based on detection of metabolic activity. Specifically, resazurin, the active ingredient of alamarBlue reagent, is blue in color and virtually non-fluorescent. Upon entering cells, resazurin is reduced to resorufin, a compound that is red in color and highly fluorescent.
(§3) Continued cell growth maintains a reduced environment, therefore increasing the overall fluorescence and color of the media surrounding cells. The fluorescence intensity of alamarBlue reagent was directly proportional to cell number. To perform the alamarBlue assay, 10 I of alamarBlue reagent was added to each well and the plate was incubated at 37° C. for an additional 2 hour. Fluorescence intensity was measured at an excitation of 530 nm and an emission of 590 nm using a BioTek Synergy™ 2 microplate reader.
(§4) Cell proliferation assays in triplicate were performed at each concentration. The fluorescent intensity data were analyzed using the computer software, Graphpad Prism. In the absence of the compound, the fluorescent intensity (Ft) in each data set was defined as 100%. In the absence of cells, the fluorescent intensity (Fb) in each data set was defined as 0%. The percent cell in the presence of each compound was calculated according to the following equation: % cell=(F−Fb)/(Ft−Fb), where F=the fluorescent intensity in the presence of the compound, Fb=the fluorescent intensity in the absence of cells, and Ft=the fluorescent intensity in the absence of the compound. The values of % cell versus a series of compound concentrations were then plotted using non-linear regression analysis of Sigmoidal dose-response curve generated with the equation Y=B+(T−B)/1+10^((Log EC50-X)×Hill Slope) where Y=percent cell, B=minimum percent cell, T=maximum percent cell, X=logarithm of compound and Hill Slope=slope factor or Hill coefficient. The IC50 value was determined by the concentration causing a half-maximal percent activity.

[4] = Compound 1 and gemcitabine plasma PK in the male cynomolgus monkey (study h); format: in vivo; details: plasma; for AUC(0-inf): read-out: AUC0-inf; for MRT inf: read-out: MRT0-inf; for MRT last: read-out: MRT0-last
Experimental: Objectives: to compare the plasma pharmacokinetics and stability of the Compound 1 with Int 1-4 and in plasma following a single intravenous infusion administration of Compound 1 at 5 mg/kg and 10 mg/kg with equimolar gemcitabine at 2.28 mg/kg in male cynomolgous monkeys.
PK measurements: compare PK parameters C0, CL, Vdss, Cmax, tmax, t1/2, AUC(0-t), AUC(0-inf), MRT(0-t), MRT(0-inf) for Compound 1 and Int 1-4 with gemcitabine.

[5] = Metabolic stability in liver hepatocytes, mouse; format: in vitro ADME
UT-SCC-10 = assay: Tumor cell proliferation (alamarBlue) cytotoxicity assay, UT-SCC-10; format: cell-based, human; details: Homo sapiens; UT-SCC-10, 72 hours treatment
Experimental: as §1, §2, §3, §4

UT-SCC-16B = assay: Tumor cell proliferation (alamarBlue) cytotoxicity assay, UT-SCC-16B; format: cell-based, human; details: Homo sapiens, 72 hours treatment
Experimental: as §1, §2, §3, §4

[6] = Metabolic stability in liver hepatocytes, monkey; format: in vitro ADME
UT-SCC-16A = assay: Tumor cell proliferation (alamarBlue) cytotoxicity assay, UT-SCC-16A; format: cell-based, human; details: Homo sapiens, 72 hours treatment
Experimental: as §1, §2, §3, §4

[7] = Metabolic stability in liver hepatocytes, human; format: in vitro ADME
[8] = Metabolic stability in liver hepatocytes, rat; format: in vitro ADME
[9] = Comparative dog plasma PK of Int 1-4 versus gemcitabine (study k); format: in vivo; details: male beagle dog, after iv gemcitabine 5.29 mg/kg, read-out: MRT0-inf
[10] = 10 mg/kg, after iv Int 1-4 10.0 mg/kg, Formulation 1
[11] = 10 mg/kg, after iv Int 1-4 10.0 mg/kg, Formulation 2
[12] = 11.6 mg/kg, after iv Compound 1 11.6 mg/kg
[13] = 23.2 mg/kg, after iv Compound 1 23.2 mg/kg
[14] = after iv gemcitabine 2.28 mg/kg

Nc1ccn([C@@H]2O[C@H](CO)[C@@H](O)C2(F)F)c(=O)n1 [Gemcitabine, gemcitabine]
Slope Mean ± SE [1]: 0.000126 ± 0.001156 | half-life ([2]; human liver microsomes): 20.1 min | Compound Remaining (% of 0 min) 0 min ([2]; human liver microsomes, 0 min): 100 % of 0 min | Compound Remaining (% of 0 min) 5 min ([2]; human liver microsomes, 5 min): 113 % of 0 min | Compound Remaining (% of 0 min) 15 min ([2]; human liver microsomes, 15 min): 69.1 % of 0 min | Compound Remaining (% of 0 min) 30 min ([2]; human liver microsomes, 30 min): 48.6 % of 0 min | Compound Remaining (% of 0 min) 45 min ([2]; human liver microsomes, 45 min): 22.4 % of 0 min | Compound Remaining (% of 0 min) control ([2]; human liver microsomes, control): 98.1 % of 0 min | microsomal CLint ([2]; human, liver microsomes): 68.8 µL/min/mg | AUC(0-t) [3, 10]: 98.6 ng·h/mL | half-life [3, 10]: 97.2 min | AUC(0-inf) ([3]; 10 mg/kg, after iv Int 1-4 10.0 mg/kg, Formulation 1, read-out: AUC0-inf): 120 ng·h/mL | Cmax ([3]; 10 mg/kg, after iv Int 1-4 10.0 mg/kg, Formulation 1, read-out: Cmax): 107 ng/mL | MRT inf ([3]; 10 mg/kg, after iv Int 1-4 10.0 mg/kg, Formulation 1, read-out: MRT0-inf): 1.98 h | MRT last ([3]; 10 mg/kg, after iv Int 1-4 10.0 mg/kg, Formulation 1, read-out: MRT0-last): 1.15 h | Tmax ([3]; 10 mg/kg, after iv Int 1-4 10.0 mg/kg, Formulation 1, read-out: Tmax): 3.67 min | AUC(0-t) [3, 11]: 85.1 ng·h/mL | half-life [3, 11]: 99.6 min | AUC(0-inf) ([3]; 10 mg/kg, after iv Int 1-4 10.0 mg/kg, Formulation 2, read-out: AUC0-inf): 102 ng·h/mL | Cmax ([3]; 10 mg/kg, after iv Int 1-4 10.0 mg/kg, Formulation 2, read-out: Cmax): 93.6 ng/mL | MRT inf ([3]; 10 mg/kg, after iv Int 1-4 10.0 mg/kg, Formulation 2, read-out: MRT0-inf): 2.1 h | MRT last ([3]; 10 mg/kg, after iv Int 1-4 10.0 mg/kg, Formulation 2, read-out: MRT0-last): 1.25 h | Tmax ([3]; 10 mg/kg, after iv Int 1-4 10.0 mg/kg, Formulation 2, read-out: Tmax): 2 min | AUC(0-t) [3, 12]: 97.9 ng·h/mL | half-life [3, 12]: 62.4 min | AUC(0-inf) ([3]; 11.6 mg/kg, after iv Compound 1 11.6 mg/kg, read-out: AUC0-inf): 112 ng·h/mL | Cmax ([3]; 11.6 mg/kg, after iv Compound 1 11.6 mg/kg, read-out: Cmax): 152 ng/mL | MRT inf ([3]; 11.6 mg/kg, after iv Compound 1 11.6 mg/kg, read-out: MRT0-inf): 1.41 h | MRT last ([3]; 11.6 mg/kg, after iv Compound 1 11.6 mg/kg, read-out: MRT0-last): 1.01 h | Tmax ([3]; 11.6 mg/kg, after iv Compound 1 11.6 mg/kg, read-out: Tmax): 1.5 min | AUC(0-t) [3, 13]: 202 ng·h/mL | half-life [3, 13]: 61.8 min | AUC(0-inf) ([3]; 23.2 mg/kg, after iv Compound 1 23.2 mg/kg, read-out: AUC0-inf): 218 ng·h/mL | Cmax ([3]; 23.2 mg/kg, after iv Compound 1 23.2 mg/kg, read-out: Cmax): 222 ng/mL | MRT inf ([3]; 23.2 mg/kg, after iv Compound 1 23.2 mg/kg, read-out: MRT0-inf): 1.4 h | MRT last ([3]; 23.2 mg/kg, after iv Compound 1 23.2 mg/kg, read-out: MRT0-last): 1.11 h | Tmax ([3]; 23.2 mg/kg, after iv Compound 1 23.2 mg/kg, read-out: Tmax): 2 min | IC50 (UT-SCC-8): 22 nM | AUC(0-t) ([4]; after iv Compound 1 5 mg/kg): 7.85 ng·h/mL | half-life ([4]; after iv Compound 1 5 mg/kg): 7.8 min | AUC(0-inf) ([4]; after iv Compound 1 5 mg/kg): 7 ng·h/mL | MRT inf ([4]; after iv Compound 1 5 mg/kg): 13.8 min | MRT last ([4]; after iv Compound 1 5 mg/kg): 11.4 min | AUC(0-t) [4, 14]: 164 ng·h/mL | C0 [4, 14]: 13400 ng/mL | clearance [4, 14]: 247 mL/min/kg | half-life [4, 14]: 1.2 min | AUC(0-inf) [4, 14]: 165 ng·h/mL | MRT inf [4, 14]: 1.2 min | MRT last [4, 14]: 1.2 min | Vd ([4]; after iv gemcitabine 2.28 mg/kg, read-out: Vdss): 0.231 L/kg | Slope Mean ± SE [5]: −0.000512 ± 0.001111 | half-life ([5]; read-out: t1/2 mean ± SE): 1350 ± 2930 min | IC50 (UT-SCC-10): 9 nM | IC50 (UT-SCC-16B): 99 nM | Slope Mean ± SE [6]: 0.001817 ± 0.001897 | IC50 (UT-SCC-16A): 61 nM | Slope Mean ± SE [7]: −0.00684 ± 0.001905 | half-life ([7]; read-out: t1/2 mean ± SE): 101 ± 28.2 min | Slope Mean ± SE [8]: 0.00055 ± 0.001504 | MRT inf [9]: 2.5 h
